Experimental data from ChEMBL document CHEMBL1201862, “PubChem BioAssay data set” (2004).
Activity calls are given as the source filed them.

What was measured:
Vero = experiment: Vero cell toxicity, dose response, cytotoxicity control, plate reader, cherry-pick samples (AID 687020); format: functional, cell-based; conditions: Chlorocebus sabaeus
[1] = target: Botulinum neurotoxin type F (Clostridium botulinum, UniProt P30996); experiment: High-throughput multiplex microsphere dose response for inhibitors of toxin protease, specifically Botulinum neurotoxin light chain F protease, compounds from Cherry Pick 02.; format: functional; conditions: read-out: EC50_MICROM
Sequence of Botulinum neurotoxin type F (P30996 1-436 limits assumed): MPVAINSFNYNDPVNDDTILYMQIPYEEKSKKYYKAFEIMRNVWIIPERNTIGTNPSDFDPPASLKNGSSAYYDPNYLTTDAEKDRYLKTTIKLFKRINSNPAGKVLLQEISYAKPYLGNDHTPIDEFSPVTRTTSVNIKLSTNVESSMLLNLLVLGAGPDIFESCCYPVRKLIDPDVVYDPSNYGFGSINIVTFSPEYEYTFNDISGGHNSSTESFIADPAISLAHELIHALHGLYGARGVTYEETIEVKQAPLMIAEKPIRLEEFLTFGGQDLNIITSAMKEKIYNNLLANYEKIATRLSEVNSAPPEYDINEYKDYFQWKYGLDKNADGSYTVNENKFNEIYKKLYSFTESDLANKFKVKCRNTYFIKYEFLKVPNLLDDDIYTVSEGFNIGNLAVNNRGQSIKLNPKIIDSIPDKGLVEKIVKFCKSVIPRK

[2] = target: T1, Neuropeptide Y receptor type 1 (Homo sapiens, UniProt P25929); format: functional;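 note: HEK293 cells with a CNG channel challenged with NPY then isoproterenol; potency as antagonist that reverses NPY suppression of cAMP signal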
T1 sequence (P25929 whole entry): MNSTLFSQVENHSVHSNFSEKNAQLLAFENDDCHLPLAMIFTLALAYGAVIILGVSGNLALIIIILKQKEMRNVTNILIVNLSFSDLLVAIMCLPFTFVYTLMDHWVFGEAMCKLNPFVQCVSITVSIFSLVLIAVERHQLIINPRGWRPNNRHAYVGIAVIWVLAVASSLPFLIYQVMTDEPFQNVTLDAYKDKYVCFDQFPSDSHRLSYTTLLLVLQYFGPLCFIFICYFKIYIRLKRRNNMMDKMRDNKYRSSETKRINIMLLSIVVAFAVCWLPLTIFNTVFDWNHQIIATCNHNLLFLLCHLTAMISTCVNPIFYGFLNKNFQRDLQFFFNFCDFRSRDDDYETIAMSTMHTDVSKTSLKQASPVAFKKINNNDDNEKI

[3] = target: T2, Neuropeptide Y receptor type 2 (Homo sapiens, UniProt P49146); format: functional, cell-based;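 note: HEK293 cells expressing the receptor and a CNG channel; stimulus was NPY near EC95 followed by isoproterenol to raise cAMP; antagonist potency measured as restoring cAMP signal that NPY suppresses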
T2 sequence (P49146 whole entry): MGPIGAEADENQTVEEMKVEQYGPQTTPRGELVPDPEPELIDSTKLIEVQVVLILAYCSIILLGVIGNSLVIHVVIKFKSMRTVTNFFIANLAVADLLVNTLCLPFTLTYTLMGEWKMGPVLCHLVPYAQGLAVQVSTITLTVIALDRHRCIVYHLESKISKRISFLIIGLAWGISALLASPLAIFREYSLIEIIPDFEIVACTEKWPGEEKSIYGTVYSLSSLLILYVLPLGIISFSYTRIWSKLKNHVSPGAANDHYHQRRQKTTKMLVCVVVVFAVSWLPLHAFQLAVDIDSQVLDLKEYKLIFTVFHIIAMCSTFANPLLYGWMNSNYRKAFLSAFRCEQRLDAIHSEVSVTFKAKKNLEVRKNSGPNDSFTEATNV

[4] = target: T3, Mitochondrial peptide methionine sulfoxide reductase (Bos taurus, UniProt P54149); format: functional;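 note: absorbance read-out, biochemical high-throughput dose-response screen for MsrA inhibitors, confirmatory; recombinant bovine MsrA coupled to E. coli TrxB with NADPH and selenocystamine; potency is for inhibitors of MsrA activity on DMSO substrate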
T3 sequence (P54149 whole entry): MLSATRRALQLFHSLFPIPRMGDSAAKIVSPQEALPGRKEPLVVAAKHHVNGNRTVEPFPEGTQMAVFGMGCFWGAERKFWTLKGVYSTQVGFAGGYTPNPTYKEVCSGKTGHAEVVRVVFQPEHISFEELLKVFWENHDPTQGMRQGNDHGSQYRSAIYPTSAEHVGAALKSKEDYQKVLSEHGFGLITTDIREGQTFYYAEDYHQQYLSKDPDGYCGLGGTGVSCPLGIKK

[5] = target: T4, ATP-dependent translocase ABCB1 (Homo sapiens, UniProt P08183); experiment: ABCG2 efflux pump inhibitor potency, dose response, Ig-MXP3 cells, JC-1, flow cytometry, set 2 (AID 504566); format: functional; conditions: read-out: EC50_MICROM_;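 note: flow cytometry median green fluorescence of retained JC-1 dye; potency of efflux pump inhibition measured as rising substrate retention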
T4 sequence (P08183 whole entry): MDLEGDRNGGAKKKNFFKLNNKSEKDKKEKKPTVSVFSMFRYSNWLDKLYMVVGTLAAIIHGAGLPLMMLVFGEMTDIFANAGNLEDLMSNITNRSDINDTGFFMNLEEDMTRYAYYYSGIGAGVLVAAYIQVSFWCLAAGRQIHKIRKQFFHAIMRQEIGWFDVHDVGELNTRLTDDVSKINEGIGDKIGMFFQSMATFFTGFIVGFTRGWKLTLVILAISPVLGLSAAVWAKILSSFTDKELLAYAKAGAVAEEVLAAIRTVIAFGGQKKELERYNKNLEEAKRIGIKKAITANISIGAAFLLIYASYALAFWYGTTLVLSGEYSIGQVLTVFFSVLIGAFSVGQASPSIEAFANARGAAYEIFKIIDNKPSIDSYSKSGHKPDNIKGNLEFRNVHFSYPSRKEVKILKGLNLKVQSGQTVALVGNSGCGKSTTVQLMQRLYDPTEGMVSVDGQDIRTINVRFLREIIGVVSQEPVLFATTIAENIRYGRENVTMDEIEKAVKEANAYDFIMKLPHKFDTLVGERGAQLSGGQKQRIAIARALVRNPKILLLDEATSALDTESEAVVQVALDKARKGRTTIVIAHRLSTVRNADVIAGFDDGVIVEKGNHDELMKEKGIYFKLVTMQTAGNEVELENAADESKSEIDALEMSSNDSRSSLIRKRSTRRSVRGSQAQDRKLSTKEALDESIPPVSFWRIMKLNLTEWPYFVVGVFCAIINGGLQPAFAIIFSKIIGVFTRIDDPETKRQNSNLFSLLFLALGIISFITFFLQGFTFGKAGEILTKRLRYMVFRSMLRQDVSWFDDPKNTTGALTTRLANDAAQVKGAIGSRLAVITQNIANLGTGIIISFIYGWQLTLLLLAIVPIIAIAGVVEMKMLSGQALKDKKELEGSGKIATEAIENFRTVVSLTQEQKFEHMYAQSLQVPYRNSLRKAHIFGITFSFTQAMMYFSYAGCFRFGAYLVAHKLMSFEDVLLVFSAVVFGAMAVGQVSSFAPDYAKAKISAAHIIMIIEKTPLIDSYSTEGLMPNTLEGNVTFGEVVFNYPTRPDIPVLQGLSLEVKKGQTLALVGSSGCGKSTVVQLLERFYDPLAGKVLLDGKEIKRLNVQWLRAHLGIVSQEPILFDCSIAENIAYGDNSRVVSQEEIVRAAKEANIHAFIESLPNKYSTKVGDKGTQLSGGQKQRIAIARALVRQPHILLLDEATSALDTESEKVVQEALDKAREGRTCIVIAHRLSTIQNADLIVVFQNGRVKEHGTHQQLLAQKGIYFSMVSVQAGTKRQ

[6] = target: T4, ATP-dependent translocase ABCB1; experiment: ABCB1 efflux inhibitor potency, dose response, Jurkat-DNR cells, JC-1, flow cytometry, set 2 (AID 504569); format: functional; conditions: read-out: EC50_MICROM_;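 note: potency of pump inhibitors that raise cellular JC-1 green fluorescence up to the nicardipine level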
[7] = target: T5, DNA repair protein RAD52 homolog (Homo sapiens, UniProt P43351); format: functional, biochemical
T5 sequence (P43351 whole entry): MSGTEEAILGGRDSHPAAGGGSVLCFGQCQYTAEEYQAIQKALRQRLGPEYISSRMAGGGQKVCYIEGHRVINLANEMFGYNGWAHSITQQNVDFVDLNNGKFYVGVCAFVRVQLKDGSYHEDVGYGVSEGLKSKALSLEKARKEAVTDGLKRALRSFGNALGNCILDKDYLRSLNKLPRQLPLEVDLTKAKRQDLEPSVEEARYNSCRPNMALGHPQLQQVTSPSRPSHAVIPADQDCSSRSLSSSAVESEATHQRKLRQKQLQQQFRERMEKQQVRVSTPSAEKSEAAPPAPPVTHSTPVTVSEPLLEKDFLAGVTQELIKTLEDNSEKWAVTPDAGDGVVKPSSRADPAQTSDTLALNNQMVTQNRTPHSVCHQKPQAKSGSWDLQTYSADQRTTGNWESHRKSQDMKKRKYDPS

[8] = MDA-MB-231 cell growth inhibition, dose response, cytotoxicity control for RAD54 inhibitor project, CellTiter-Glo luminescence, cherry-pick (AID 651692); format: functional, cell-based
[9] = target: T6, DNA repair and recombination protein RAD54-like (Homo sapiens, UniProt Q92698); experiment: inhibitors of human RAD54 branch migration, confirmation, biochemical, fluorescence, cherry-picked samples, dose series (AID 651657); format: functional
T6 sequence (Q92698 whole entry): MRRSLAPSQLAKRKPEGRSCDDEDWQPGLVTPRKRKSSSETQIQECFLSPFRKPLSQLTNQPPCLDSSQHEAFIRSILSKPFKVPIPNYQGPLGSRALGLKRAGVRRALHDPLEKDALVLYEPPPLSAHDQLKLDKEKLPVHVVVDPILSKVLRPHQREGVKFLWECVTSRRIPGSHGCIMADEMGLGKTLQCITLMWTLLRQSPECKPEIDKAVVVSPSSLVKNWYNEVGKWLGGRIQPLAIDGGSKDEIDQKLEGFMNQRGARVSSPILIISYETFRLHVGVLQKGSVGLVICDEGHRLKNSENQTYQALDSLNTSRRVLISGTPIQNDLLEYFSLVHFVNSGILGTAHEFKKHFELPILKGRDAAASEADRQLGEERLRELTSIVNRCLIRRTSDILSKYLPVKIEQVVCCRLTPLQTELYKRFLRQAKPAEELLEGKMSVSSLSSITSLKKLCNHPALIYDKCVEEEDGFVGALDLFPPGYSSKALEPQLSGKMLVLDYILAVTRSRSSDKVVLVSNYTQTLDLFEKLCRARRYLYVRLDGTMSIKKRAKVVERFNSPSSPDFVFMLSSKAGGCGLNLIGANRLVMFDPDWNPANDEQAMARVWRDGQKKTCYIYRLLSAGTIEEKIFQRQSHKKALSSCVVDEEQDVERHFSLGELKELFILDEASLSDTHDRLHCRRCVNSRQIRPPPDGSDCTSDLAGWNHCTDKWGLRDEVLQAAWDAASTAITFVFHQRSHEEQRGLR

CCNS(=O)(=O)c1ccc(Br)c(C(=O)OC(C)C(=O)NCC2CCCCC2)c1 (stereo not given)
AC50 (Vero): 31.7 µM (active)

Cc1nc2ccc(NC(=O)[C@@H](NC(=O)c3c(F)cccc3F)C(C)C)cc2s1
EC50 [1]: > 20 µM (inactive)

CCc1nnc(S)n1/N=C/c1cc(Br)c(OC)cc1OC
IC50 [2]: > 35 µM (not active) | IC50 [3]: > 35 µM (not active) | IC50 [4]: 155 µM (inactive)

CC(C)(C)c1cc2nc(C(F)(F)F)cc(N3CCN(C(=O)c4cccs4)CC3)n2n1
EC50 [5]: 1.59 µM (active) | EC50 [6]: 6.06 µM (active)

COc1ccc(OC)c2sc(N(CCN(C)C)C(=O)c3ccc4ccccc4c3)nc12
AC50 [7]: 10.7 µM (active) | AC50 [8]: 32.7 µM (active) | AC50 [9]: 58.4 µM (active)
